# Assay results as given in publication PMC7701510, “Identification of HN252 as a potent inhibitor of protein phosphatase PPM1B” (Journal of Cellular and Molecular Medicine, 2020).
# Assays:
# [1] = target: T1, PPM1K (Homo sapiens, UniProt Q8N3J5); test: pNPP hydrolysis phosphatase assay (selectivity panel); assay type: biochemical; conditions: pNPP as substrate
# T1 sequence (Q8N3J5 30-372): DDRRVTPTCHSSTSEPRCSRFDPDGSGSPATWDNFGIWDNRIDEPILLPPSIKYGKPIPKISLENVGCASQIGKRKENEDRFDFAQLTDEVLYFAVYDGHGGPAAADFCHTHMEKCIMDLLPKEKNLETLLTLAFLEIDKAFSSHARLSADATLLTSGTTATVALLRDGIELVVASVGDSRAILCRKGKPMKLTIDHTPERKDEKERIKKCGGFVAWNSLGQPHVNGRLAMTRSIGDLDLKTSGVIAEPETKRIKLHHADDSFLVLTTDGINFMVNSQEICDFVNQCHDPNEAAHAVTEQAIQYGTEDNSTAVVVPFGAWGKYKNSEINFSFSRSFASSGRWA
# [2] = target: YPH (Yersinia enterocolitica, UniProt P15273); assay type: biochemical
# Sequence of YPH (P15273 163-468 limits assumed): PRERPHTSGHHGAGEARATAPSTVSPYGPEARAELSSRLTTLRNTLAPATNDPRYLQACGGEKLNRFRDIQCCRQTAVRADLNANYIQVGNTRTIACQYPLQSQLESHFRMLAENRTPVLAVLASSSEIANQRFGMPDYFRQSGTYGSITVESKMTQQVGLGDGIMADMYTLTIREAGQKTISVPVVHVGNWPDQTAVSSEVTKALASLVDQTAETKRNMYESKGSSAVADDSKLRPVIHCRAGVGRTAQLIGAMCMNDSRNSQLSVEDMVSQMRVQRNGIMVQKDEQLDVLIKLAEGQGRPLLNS
# [3] = target: T2, LYP (Homo sapiens, UniProt Q9Y2R2); test: pNPP hydrolysis phosphatase assay (selectivity panel); assay type: biochemical; conditions: pNPP as substrate
# T2 sequence (Q9Y2R2 1-807): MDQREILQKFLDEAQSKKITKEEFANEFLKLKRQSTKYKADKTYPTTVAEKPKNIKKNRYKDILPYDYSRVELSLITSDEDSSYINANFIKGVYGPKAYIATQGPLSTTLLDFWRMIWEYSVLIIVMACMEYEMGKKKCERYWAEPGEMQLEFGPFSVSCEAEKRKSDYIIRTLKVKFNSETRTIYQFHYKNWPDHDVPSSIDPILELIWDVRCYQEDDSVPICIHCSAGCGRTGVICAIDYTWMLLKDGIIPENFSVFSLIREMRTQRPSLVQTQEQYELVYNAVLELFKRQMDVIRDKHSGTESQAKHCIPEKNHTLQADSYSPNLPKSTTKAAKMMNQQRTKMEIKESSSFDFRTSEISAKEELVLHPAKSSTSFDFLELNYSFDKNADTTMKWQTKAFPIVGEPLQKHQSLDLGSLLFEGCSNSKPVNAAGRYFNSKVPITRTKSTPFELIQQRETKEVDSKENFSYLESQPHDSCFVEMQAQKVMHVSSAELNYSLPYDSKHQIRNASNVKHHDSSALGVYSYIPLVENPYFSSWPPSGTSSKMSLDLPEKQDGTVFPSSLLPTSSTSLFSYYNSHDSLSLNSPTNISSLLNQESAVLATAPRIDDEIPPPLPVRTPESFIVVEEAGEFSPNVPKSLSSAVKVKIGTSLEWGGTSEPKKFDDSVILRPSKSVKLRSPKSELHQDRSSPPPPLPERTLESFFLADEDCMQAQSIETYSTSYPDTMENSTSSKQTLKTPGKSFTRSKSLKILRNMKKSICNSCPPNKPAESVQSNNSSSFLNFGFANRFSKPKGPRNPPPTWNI
# [4] = target: T3, SSH2 (Homo sapiens, UniProt Q76I76); test: as above; assay type: biochemical; conditions: pNPP as substrate
# T3 sequence (Q76I76 1-1423): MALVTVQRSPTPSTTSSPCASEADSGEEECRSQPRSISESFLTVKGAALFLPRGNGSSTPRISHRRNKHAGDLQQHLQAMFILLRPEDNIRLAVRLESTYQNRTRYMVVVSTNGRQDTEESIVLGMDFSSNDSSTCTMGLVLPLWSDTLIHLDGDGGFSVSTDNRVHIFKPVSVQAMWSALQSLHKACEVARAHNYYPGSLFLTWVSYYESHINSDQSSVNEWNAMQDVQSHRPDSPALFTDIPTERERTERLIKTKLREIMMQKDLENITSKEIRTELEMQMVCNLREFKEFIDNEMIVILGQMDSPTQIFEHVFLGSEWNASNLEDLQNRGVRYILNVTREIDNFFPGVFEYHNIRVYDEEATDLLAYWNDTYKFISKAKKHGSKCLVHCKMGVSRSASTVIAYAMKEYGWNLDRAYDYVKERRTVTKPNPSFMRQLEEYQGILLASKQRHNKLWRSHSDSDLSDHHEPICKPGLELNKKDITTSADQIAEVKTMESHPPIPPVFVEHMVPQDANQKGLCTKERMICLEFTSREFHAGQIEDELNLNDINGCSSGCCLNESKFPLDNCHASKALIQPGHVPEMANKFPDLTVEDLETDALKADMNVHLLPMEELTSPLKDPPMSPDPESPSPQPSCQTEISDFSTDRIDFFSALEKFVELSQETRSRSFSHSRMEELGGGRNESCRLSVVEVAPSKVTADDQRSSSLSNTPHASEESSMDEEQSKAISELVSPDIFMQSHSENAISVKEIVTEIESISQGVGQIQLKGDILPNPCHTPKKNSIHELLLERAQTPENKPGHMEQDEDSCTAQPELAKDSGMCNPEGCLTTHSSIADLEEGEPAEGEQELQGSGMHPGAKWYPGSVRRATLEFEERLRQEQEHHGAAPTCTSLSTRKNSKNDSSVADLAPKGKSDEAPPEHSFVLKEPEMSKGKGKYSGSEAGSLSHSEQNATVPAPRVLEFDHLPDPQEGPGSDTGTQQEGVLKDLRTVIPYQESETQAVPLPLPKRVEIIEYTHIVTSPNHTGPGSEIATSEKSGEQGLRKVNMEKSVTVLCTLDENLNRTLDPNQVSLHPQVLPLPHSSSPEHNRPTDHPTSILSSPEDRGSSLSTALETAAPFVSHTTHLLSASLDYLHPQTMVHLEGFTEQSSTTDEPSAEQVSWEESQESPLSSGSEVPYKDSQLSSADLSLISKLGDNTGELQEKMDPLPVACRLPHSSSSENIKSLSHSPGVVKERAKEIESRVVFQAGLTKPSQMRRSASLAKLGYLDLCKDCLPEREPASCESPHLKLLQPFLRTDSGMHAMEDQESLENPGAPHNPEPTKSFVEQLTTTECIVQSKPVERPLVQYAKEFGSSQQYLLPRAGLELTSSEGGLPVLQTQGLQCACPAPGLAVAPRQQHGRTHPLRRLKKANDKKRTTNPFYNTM
# [5] = target: PRL; test: as above; assay type: biochemical; conditions: pNPP as substrate
# [6] = system: topoisomerases; test: Topoisomerase inhibition in vitro; assay type: biochemical; conditions: data not shown
# [7] = system: HL7702 cells with PPM1B shRNA; test: Phospho Explorer Antibody Microarray, PPM1B knockdown plus HN252; conditions: in the presence of HN252
# Method: Phosphorylation profiling was performed by using the Phospho Explorer Antibody Microarray from Full Moon BioSystems, Inc (Sunnyvale, CA), according to the protocol which was previously described. ^24 In brief, cell lysates obtained from HL7702 cells treated by HN252 or DMSO for different hours or transfected with lentiviral vectors carrying shRNAs for 36 h were biotinylated with the Antibody Array Assay Kit (Full Moon BioSystems, Inc), and the data were analysed with the GenePixTM Pro 4.0 image analysis software.
compound,measurement,setting,value
Nc1cc(-c2ccc(-c3ccc(O)c(O)c3)cc2)ccc1C(=O)O [HN252],IC50,[1],27.4 ± 3.92 µM
same,IC50,[2],77.2 ± 7.95 µM
same,IC50,[3],98.2 ± 11.7 µM
same,IC50,[4],55.1 ± 2.88 µM
same,IC50,[5],> 50 µM
same,inhibition against topoisomerases,[6],no inhibition
same,number of proteins with further enhanced phosphorylation compared to PPM1B knockdown (>1.5-fold),[7],8
